The values that follow are results of earlier work, collected in patent US20220370615A1, “Prevention of Illicit Manufacture of Methamphetamine from Pseudoephedrine Using Food Flavor Excipients” (Satara Pharmaceuticals, priority 2021, published 2022).

For this data set the following is noted: species and route not given.

In the case of `CC(=O)c1cnccn1` [Acetylpyrazine], the LD50 was above 4000 mg/kg.

By LD50 is commonly meant the dose expected to kill half of the subjects tested.
